Laboratory results taken from the NIST ThermoML archive (doi:10.1021/je900124n).
Several values for one entry are separate records, joined by “and”; a condition that tells them apart may be missing. Identical values can stand only once. ± gives the expanded uncertainty stated by the source.

Settings: Fluid (supercritical or subcritical phases), Buoyancy - hydrostatic balance with magnetic suspension - two sinkers

CCC [propane]
Settings	mass density
340 K, 34960 kPa	514.104 ± 0.062 kg/m3
340 K, 34961 kPa	514.106 ± 0.062 kg/m3
340 K, 34962 kPa	514.105 ± 0.062 kg/m3
345 K, 2494.9 kPa	58.0748 ± 0.036 kg/m3 and 58.0791 ± 0.036 kg/m3 and 58.0771 ± 0.036 kg/m3
345 K, 2495 kPa	58.0845 ± 0.036 kg/m3 and 58.0787 ± 0.036 kg/m3
350 K, 1942.1 kPa	37.8566 ± 0.044 kg/m3 and 37.8552 ± 0.044 kg/m3
350 K, 1942.5 kPa	37.8654 ± 0.044 kg/m3 and 37.8643 ± 0.044 kg/m3
350 K, 1942.6 kPa	37.8656 ± 0.044 kg/m3
350 K, 2573.5 kPa	58.0372 ± 0.049 kg/m3 and 58.0366 ± 0.049 kg/m3
350 K, 2573.6 kPa	58.041 ± 0.049 kg/m3 and 58.0413 ± 0.049 kg/m3 and 58.0386 ± 0.049 kg/m3
350 K, 2844.7 kPa	70.6094 ± 0.53 kg/m3
350 K, 2844.9 kPa	70.6242 ± 0.53 kg/m3
350 K, 2845 kPa	70.6246 ± 0.53 kg/m3
350 K, 2845.1 kPa	70.6278 ± 0.53 kg/m3 and 70.6365 ± 0.53 kg/m3
350 K, 2845.2 kPa	70.6334 ± 0.53 kg/m3
350 K, 2845.3 kPa	70.6504 ± 0.53 kg/m3 and 70.6463 ± 0.53 kg/m3
350 K, 3505.9 kPa	392.661 ± 0.54 kg/m3
350 K, 3506 kPa	392.666 ± 0.54 kg/m3
350 K, 3506.2 kPa	392.664 ± 0.54 kg/m3
350 K, 3506.3 kPa	392.667 ± 0.54 kg/m3
350 K, 3506.4 kPa	392.663 ± 0.54 kg/m3 and 392.666 ± 0.54 kg/m3
350 K, 3506.5 kPa	392.666 ± 0.54 kg/m3
350 K, 12070 kPa	449.428 ± 0.055 kg/m3 [middle of 6 runs]
350 K, 12071 kPa	449.434 ± 0.055 kg/m3 and 449.429 ± 0.055 kg/m3
350 K, 24455 kPa	484.992 ± 0.059 kg/m3 and 484.989 ± 0.059 kg/m3
350 K, 24456 kPa	484.992 ± 0.059 kg/m3
355 K, 2650.7 kPa	57.9954 ± 0.061 kg/m3 [middle of 4 runs]
355 K, 3003.3 kPa	73.4591 ± 0.061 kg/m3 [middle of 6 runs]
355.01 K, 3003.3 kPa	73.4598 ± 0.061 kg/m3
359 K, 3436 kPa	96.2198 ± 0.073 kg/m3
359 K, 3436.4 kPa	96.2687 ± 0.073 kg/m3 and 96.2618 ± 0.073 kg/m3 and 96.2668 ± 0.073 kg/m3
359 K, 3436.5 kPa	96.2652 ± 0.073 kg/m3
359.99 K, 15760 kPa	448.817 ± 0.055 kg/m3
359.99 K, 15761 kPa	448.823 ± 0.055 kg/m3
360 K, 303.73 kPa	4.597 ± 0.0029 kg/m3 and 4.5969 ± 0.0029 kg/m3
360 K, 303.74 kPa	4.597 ± 0.0029 kg/m3 and 4.5971 ± 0.0029 kg/m3
360 K, 539.35 kPa	8.3504 ± 0.0033 kg/m3
360 K, 539.36 kPa	8.3506 ± 0.0033 kg/m3 and 8.3504 ± 0.0033 kg/m3 and 8.3503 ± 0.0033 kg/m3
360 K, 901.24 kPa	14.4832 ± 0.0041 kg/m3 and 14.4833 ± 0.0041 kg/m3
360 K, 901.25 kPa	14.4835 ± 0.0041 kg/m3 and 14.4836 ± 0.0041 kg/m3
360 K, 1361.2 kPa	23.0769 ± 0.029 kg/m3 and 23.078 ± 0.029 kg/m3
360 K, 1361.3 kPa	23.0792 ± 0.029 kg/m3
360 K, 1361.4 kPa	23.0819 ± 0.029 kg/m3 and 23.0827 ± 0.029 kg/m3
360 K, 2033.2 kPa	37.8651 ± 0.036 kg/m3
360 K, 2033.3 kPa	37.8677 ± 0.036 kg/m3
360 K, 2033.4 kPa	37.8707 ± 0.036 kg/m3
360 K, 2033.5 kPa	37.8723 ± 0.036 kg/m3 and 37.8724 ± 0.036 kg/m3
360 K, 2725.4 kPa	57.912 ± 0.045 kg/m3
360 K, 2725.5 kPa	57.9157 ± 0.045 kg/m3
360 K, 2725.6 kPa	57.9165 ± 0.045 kg/m3
360 K, 3108.3 kPa	73.4362 ± 0.073 kg/m3 [middle of 6 runs]
360 K, 3108.4 kPa	73.4363 ± 0.073 kg/m3
360 K, 3467.9 kPa	96.3808 ± 0.61 kg/m3 and 96.381 ± 0.61 kg/m3
360 K, 3468 kPa	96.3801 ± 0.61 kg/m3 and 96.3793 ± 0.61 kg/m3 and 96.3804 ± 0.61 kg/m3
360 K, 3730.9 kPa	352.636 ± 0.21 kg/m3 and 352.637 ± 0.21 kg/m3
360 K, 3731 kPa	352.635 ± 0.21 kg/m3
360 K, 3731.1 kPa	352.636 ± 0.21 kg/m3
